Converted amounts (≈) assume the structure as drawn. “And” between values parts separate entries of the source, which are not always exact repeats. Identical values can stand only once.
Assays:
S. aureus (MDR00231) [1] = assay: Agar well-diffusion antimicrobial sensitivity assay; format: cell-based, Staphylococcus aureus; conditions: Staphylococcus aureus, read-out: Inhibition Zone (IZ)
[2] = system: S. epidermidis (MDR00223); assay: as above; format: cell-based, Staphylococcus epidermidis; conditions: Staphylococcus epidermidis, read-out: Inhibition Zone (IZ)
E. coli (MDR00501) [3] = assay: as above; format: cell-based; conditions: Escherichia coli, read-out: Inhibition Zone (IZ)
[4] = system: C. albicans100 (MDR00100); assay: as above; format: cell-based, Candida albicans; conditions: Candida albicans, read-out: Inhibition Zone (IZ)
[5] = system: C. albicans200 (MDR00200); assay: as above; format: cell-based, Candida albicans; conditions: Candida albicans, read-out: Inhibition Zone (IZ)
S. aureus (MDR00231) [6] = assay: MIC and MBC by broth microdilution; format: cell-based, Staphylococcus aureus
[7] = system: S. epidermidis (MDR00223); assay: MIC and MBC by broth microdilution; format: cell-based, Staphylococcus epidermidis
B. subtilis (MDR00423) = assay: MIC and MBC by broth microdilution; format: cell-based
E. coli (MDR00501) [8] = assay: MIC and MBC by broth microdilution; format: cell-based
A. baumannii (MDR00521) = assay: MIC and MBC by broth microdilution; format: cell-based; conditions: ratio in parentheses
K. pneumoniae (MDR00244) = assay: MIC and MBC by broth microdilution; format: cell-based; conditions: ratio in parentheses
[9] = system: C. albicans100 (MDR00100); assay: MIC and MFC by broth microdilution; format: cell-based, Candida albicans
[10] = system: C. albicans200 (MDR00200); assay: MIC and MFC by broth microdilution; format: cell-based, Candida albicans
S. aureus biofilm = assay: Staphylococcus biofilm mass reduction; format: cell-based; conditions: at their MIC
S. epidermidis biofilm = assay: Staphylococcus biofilm mass reduction; format: cell-based; conditions: at their MIC
S. aureus [11] = assay: Single-step resistance selection; format: cell-based, Staphylococcus aureus; conditions: 4 × MIC, 48 h
S. epidermidis [12] = assay: Single-step resistance selection; format: cell-based, Staphylococcus epidermidis; conditions: 4 × MIC, 48 h
B. subtilis [13] = assay: Single-step resistance selection; format: cell-based; conditions: 4 × MIC, 48 h
E. coli [14] = assay: Single-step resistance selection; format: cell-based; conditions: 4 × MIC, 48 h
A. baumannii [15] = assay: Single-step resistance selection; format: cell-based; conditions: 4 × MIC, 48 h
K. pneumoniae [16] = assay: Single-step resistance selection; format: cell-based; conditions: 4 × MIC, 48 h
C. albicans100 [17] = assay: Single-step resistance selection; format: cell-based, Candida albicans; conditions: 4 × MIC, 48 h
C. albicans200 [18] = assay: Single-step resistance selection; format: cell-based, Candida albicans; conditions: 4 × MIC, 48 h
S. aureus [19] = assay: Checkerboard combination assay with Ciprofloxacin; format: cell-based, Staphylococcus aureus
S. epidermidis [20] = assay: Checkerboard combination assay with Ciprofloxacin; format: cell-based, Staphylococcus epidermidis
B. subtilis [21] = assay: Checkerboard combination assay with Ciprofloxacin; format: cell-based
E. coli [22] = assay: Checkerboard combination assay with Ciprofloxacin; format: cell-based
A. baumannii [23] = assay: Checkerboard combination assay with Ciprofloxacin; format: cell-based
K. pneumoniae [24] = assay: Checkerboard combination assay with Ciprofloxacin; format: cell-based
C. albicans100 [25] = assay: Checkerboard combination assay with Ketoconazole; format: cell-based, Candida albicans
C. albicans200 [26] = assay: Checkerboard combination assay with Ketoconazole; format: cell-based, Candida albicans
RBCs = assay: Hemolytic assay; format: cell-based; conditions: human RBCs; compounds 1.0 mg/mL; Triton X-100 0.1% v/v; 37 °C, 35 min
E. coli DNA gyrase = E. coli DNA gyrase (Escherichia coli, UniProt P0AES4+P0AES6); assay: DNA gyrase inhibition; format: biochemical
Sequence of E. coli DNA gyrase (P0AES4 whole entry, one chain of several): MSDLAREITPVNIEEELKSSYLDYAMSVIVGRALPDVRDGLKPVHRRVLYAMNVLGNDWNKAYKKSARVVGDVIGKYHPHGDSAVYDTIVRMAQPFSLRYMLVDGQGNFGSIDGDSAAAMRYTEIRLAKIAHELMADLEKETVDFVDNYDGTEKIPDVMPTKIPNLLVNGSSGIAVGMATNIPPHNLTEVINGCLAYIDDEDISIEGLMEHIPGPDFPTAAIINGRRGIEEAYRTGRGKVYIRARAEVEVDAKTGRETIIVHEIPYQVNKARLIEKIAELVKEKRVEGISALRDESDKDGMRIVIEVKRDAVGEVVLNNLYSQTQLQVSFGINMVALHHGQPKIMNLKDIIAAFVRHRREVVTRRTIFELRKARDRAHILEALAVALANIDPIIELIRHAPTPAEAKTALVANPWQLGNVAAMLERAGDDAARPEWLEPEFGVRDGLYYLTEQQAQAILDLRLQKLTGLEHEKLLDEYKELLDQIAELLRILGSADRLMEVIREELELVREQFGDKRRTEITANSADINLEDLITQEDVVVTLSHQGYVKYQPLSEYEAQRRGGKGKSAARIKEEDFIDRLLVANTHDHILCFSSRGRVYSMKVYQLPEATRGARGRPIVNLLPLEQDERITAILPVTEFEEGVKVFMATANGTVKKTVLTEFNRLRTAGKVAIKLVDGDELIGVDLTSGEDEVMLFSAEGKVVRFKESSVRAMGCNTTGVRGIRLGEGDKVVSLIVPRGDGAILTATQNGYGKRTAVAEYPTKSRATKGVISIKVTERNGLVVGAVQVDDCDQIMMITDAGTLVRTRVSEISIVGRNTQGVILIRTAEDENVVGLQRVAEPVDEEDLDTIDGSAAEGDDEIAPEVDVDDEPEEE

[27] = target: T1, dihydrofolate reductase (DHFR) (Homo sapiens, UniProt P00374); assay: DHFR inhibition; format: biochemical
T1 sequence (P00374 1-187): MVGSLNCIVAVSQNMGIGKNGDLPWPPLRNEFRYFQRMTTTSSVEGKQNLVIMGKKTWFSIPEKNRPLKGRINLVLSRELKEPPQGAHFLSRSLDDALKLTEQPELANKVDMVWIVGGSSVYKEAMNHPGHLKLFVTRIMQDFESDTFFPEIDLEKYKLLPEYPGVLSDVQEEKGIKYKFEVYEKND

[28] = In vitro cytotoxicity on normal cell line; format: cell-based, mouse; conditions: mouse, BNL normal liver cells
[29] = system: BNL: mouse normal liver cells; assay: In vitro cytotoxicity on normal cell line; format: cell-based
[30] = In vitro cytotoxicity on normal cell line; format: cell-based, green monkey; conditions: green monkey, Vero kidney cells
[31] = system: Vero: green monkey kidney; assay: In vitro cytotoxicity on normal cell line; format: cell-based
[32] = In vitro cytotoxicity on normal cell line; format: cell-based, rat; conditions: rat, H9C2 heart/myocardium cells
[33] = system: H9C2: rat heart/myocardium; assay: In vitro cytotoxicity on normal cell line; format: cell-based
S. aureus [34] = assay: Time-kill kinetic assay; format: cell-based, Staphylococcus aureus
S. epidermidis [35] = assay: Time-kill kinetic assay; format: cell-based, Staphylococcus epidermidis; conditions: 2 × MIC
B. subtilis [36] = assay: Time-kill kinetic assay; format: cell-based; conditions: 2 × MIC
E. coli [37] = assay: Time-kill kinetic assay; format: cell-based
A. baumannii [38] = assay: Time-kill kinetic assay; format: cell-based; conditions: 2 × MIC
K. pneumoniae [39] = assay: Time-kill kinetic assay; format: cell-based; conditions: 2 × MIC
[40] = system: clinical pathogenic isolates; assay: Single-step resistance selection, whole panel; format: cell-based; conditions: 4 × MIC
[41] = system: all the pathogenic isolates tested; assay: Time-kill kinetic assay, whole panel; format: cell-based

SMILES: CCOC(=O)c1c(N)csc1-c1cn(-c2ccccc2)nc1-c1ccc(C)cc1 [Compound 7b, Ethyl 4-Amino-2-(1-phenyl-3-(p-tolyl)-1H-pyrazol-4-yl)thiophene-3-carboxylate]
- zone of inhibition at 100000 µg/mL (S. aureus (MDR00231) [1]): 33 ± 0.32 mm
- zone of inhibition at 100000 µg/mL [2]: 31 ± 0.16 mm
- zone of inhibition at 100000 µg/mL (E. coli (MDR00501) [3]): 30 ± 0.5 mm
- zone of inhibition at 100000 µg/mL [4]: 31 ± 0.11 mm
- zone of inhibition at 100000 µg/mL [5]: 32 ± 0.32 mm
- MBC/MIC (S. aureus (MDR00231) [6]; S. aureus, ratio in parentheses): 0.5
- MIC (S. aureus (MDR00231) [6]; Staphylococcus aureus, read-out: MIC (mean ± SEM), S. aureus, broth microdilution): 0.22 ± 0.3 µg/mL (≈ 0.545 µM)
- MBC/MIC ([7]; S. epidermidis, ratio in parentheses): 0.5
- MIC ([7]; Staphylococcus epidermidis, read-out: MIC (mean ± SEM), S. epidermidis, broth microdilution): 0.24 ± 0.2 µg/mL (≈ 0.595 µM)
- MBC/MIC (B. subtilis (MDR00423); B. subtilis, ratio in parentheses): 1
- MIC (B. subtilis (MDR00423); Bacillus subtilis, read-out: MIC (mean ± SEM), B. subtilis, broth microdilution): 0.23 ± 0.6 µg/mL (≈ 0.57 µM)
- MBC/MIC (E. coli (MDR00501) [8]; E. coli, ratio in parentheses): 0.5
- MIC (E. coli (MDR00501) [8]; Escherichia coli, read-out: MIC (mean ± SEM), E. coli, broth microdilution): 0.23 ± 0.1 µg/mL (≈ 0.57 µM)
- MBC/MIC (A. baumannii (MDR00521)): 1
- MBC/MIC (K. pneumoniae (MDR00244)): 1
- MFC/MIC ([9]; C. albicans100, ratio in parentheses): 1
- MIC ([9]; Candida albicans, read-out: MIC (mean ± SEM), C. albicans100, broth microdilution): 0.25 ± 0.2 µg/mL (≈ 0.62 µM)
- MFC/MIC ([10]; C. albicans200, ratio in parentheses): 0.5
- MIC ([10]; Candida albicans, read-out: MIC (mean ± SEM), C. albicans200, broth microdilution): 0.23 ± 0.3 µg/mL (≈ 0.57 µM)
- reduction of biofilm formation (S. aureus biofilm): 67%
- reduction of biofilm formation (S. epidermidis biofilm): 58%
- Single-step resistance frequency (mutation frequency) (S. aureus [11]): 1.34 × 10^–6
- Single-step resistance frequency (mutation frequency) (S. epidermidis [12]): 1.62 × 10^–6
- Single-step resistance frequency (mutation frequency) (B. subtilis [13]): 1.30 × 10^–7
- Single-step resistance frequency (mutation frequency) (E. coli [14]): 1.90 × 10^–6
- Single-step resistance frequency (mutation frequency) (A. baumannii [15]): 2.11 × 10^–6
- Single-step resistance frequency (mutation frequency) (K. pneumoniae [16]): 1.67 × 10^–7
- Single-step resistance frequency (mutation frequency) (C. albicans100 [17]): 2.51 × 10^–6
- Single-step resistance frequency (mutation frequency) (C. albicans200 [18]): 3.10 × 10^–6
- combination effect (S. aureus [19]): S (S: synergism)
- fractional inhibitory concentration index (FICI) (S. aureus [19]): 0.25
- combination effect (S. epidermidis [20]): S (S: synergism)
- fractional inhibitory concentration index (FICI) (S. epidermidis [20]): 0.25
- combination effect (B. subtilis [21]): S (S: synergism)
- fractional inhibitory concentration index (FICI) (B. subtilis [21]): 0.5
- combination effect (E. coli [22]): S (S: synergism)
- fractional inhibitory concentration index (FICI) (E. coli [22]): 0.5
- combination effect (A. baumannii [23]): S (S: synergism)
- fractional inhibitory concentration index (FICI) (A. baumannii [23]): 0.25
- combination effect (K. pneumoniae [24]): S (S: synergism)
- fractional inhibitory concentration index (FICI) (K. pneumoniae [24]): 0.5
- combination effect (C. albicans100 [25]): S (S: synergism)
- fractional inhibitory concentration index (FICI) (C. albicans100 [25]): 0.5
- combination effect (C. albicans200 [26]): S (S: synergism)
- %lysis of RBCs (RBCs): 3.23% and 3.23 ± 0.58%
- IC50 (E. coli DNA gyrase): 12.3 ± 0.34 µM
- IC50 [27]: 0.52 ± 0.2 µM
- IC50 at 72 h [28]: 103 ± 1.51 µM
- Selectivity index against DHFR ([29]; IC50 of BNL / IC50 of DHFR): 198.65
- Selectivity index against DNA gyrase ([29]; IC50 of BNL / IC50 of DNA gyrase): 8.41
- IC50 at 72 h [30]: 78.8 ± 1.1 µM
- Selectivity index against DHFR ([31]; IC50 of Vero / IC50 of DHFR): 151.61
- Selectivity index against DNA gyrase ([31]; IC50 of Vero / IC50 of DNA gyrase): 6.42
- IC50 at 72 h [32]: 102 ± 1.39 µM
- Selectivity index against DHFR ([33]; IC50 of H9C2 / IC50 of DHFR): 195.44
- Selectivity index against DNA gyrase ([33]; IC50 of H9C2 / IC50 of DNA gyrase): 8.28
- time of maximum reduction (S. aureus [34]; 1/2 × MIC): 24 h
- time after which cells were rapidly reduced (S. aureus [34]; 2 × MIC): 8 h
- time after which cells were rapidly reduced (S. epidermidis [35]): 12 h
- time after which cells were rapidly reduced (B. subtilis [36]): 12 h
- time of maximum reduction (E. coli [37]; 1/2 × MIC): 24 h
- time after which cells were rapidly reduced (E. coli [37]; 2 × MIC): 4 h
- time after which cells were rapidly reduced (A. baumannii [38]): 8 h
- time after which cells were rapidly reduced (K. pneumoniae [39]): 12 h
- mutation frequency, range over panel [40]: 1.34 × 10^–6 to 1.67 × 10^–7
- reduction in the viable cell count relative to the initial inoculum [41]: ≥ 3 log10

From publication PMC8851638 (ACS Omega, 2022)
